This is an account of results in US10092574B2, “Inhibitors of polynucleotide repeat-associated RNA foci and uses thereof” (VALORISATION-RECHERCHE, LIMITED PARTNERSHIP, priority 2013, dated 2018).

Each structure is given as a SMILES string. “Also recorded” adds a separate entry of the source.

What all share (type): cell-based, human
Data set [1] deals with Normal or DM1 myoblasts. Nature of the data set: Cytotoxicity assay (Hoescht 33342 / propidium iodide, High Content Screening microscope). The following applies: for cellular toxicity: 7 days (FIG. 10). How it is done:
The cellular toxicity of compounds 15 and 32, and their analogs was also measured using a validated cytotoxicity assay. Normal or DM1 myoblasts were treated with 20 μM of compound or DMSO. The ratio of viable cells was measured with a High Content Screening microscope in live cells treated with Hoescht 33342 (labels all cells) and propidium iodide (labels dead cells). The total number of cells was counted and the number of dead cells was subtracted to obtain the number of viable cells, which is presented as a ratio (drug-treated versus DMSO-treated cells). The percentage of dead cells was also measured using propidium iodide.
The cellular toxicity of the compounds was also measured in a dose-response assay. In this assay, normal (M908) and patient (DM1) myoblasts were treated for 7 days with compound 32 or 196 at concentrations varying from 5 to 60 μM. Cell number and cell death was quantified by High Content Screening microscope, as specified above. […] Indeed, the ratio of viable cells at 20 μM of compound 15 is 0.22 (FIG. 10), while for compound 196, an analogue of compound 15, it is above 1 at the same concentration (FIG. 14C).

In data set [2] the test system is CUGBP1. In words: Western blot of CUGBP1 protein levels in myoblasts. The following applies: DM1 myoblasts, 20 μM, 7 days (FIG. 7). Here is the method: Human myoblasts were obtained from the Myosix institute associated with the Association Frangaise contre les Myopathies (AFM). Five primary myoblast lines were obtained as controls, and one line from a DM1 patient with a 3.8 Kb CTG triplet amplification corresponding to approximately 1250 CTG repeats. The human myoblasts are cultivated in HAM-F10 media (SIGMA N6635) with 15% FBS, 1% chick embryo extract, and 390 ng/ml of dexamethasone. One day before adding compounds, 2×10^5 cells were plated in 100 mm plates (for CUGBP1 western blot or RT-PCR alternative splicing assay) or 2×10^4 cells/well are seeded in 12-well plates containing 12 mm round glass coverslips (for FISH to detect RNA foci). One day after plating, media is replaced with fresh media containing the compounds at the desired concentration in this manner: the media is put in a screw-cap tube and heated at 37° C. The 20 mM compound stock in 100% DMSO is pipetted directly into the media and the tube is mixed well by inversion and gentle vortexing, and immediately overlayed on the cells. Pure DMSO is used for the control cells. Final concentrations on myoblasts are never higher than 0.5%. This procedure is repeated twice during the seven days of treatment, the media is thus replaced with fresh media containing compound every 2-3 days. Cells are collected or fixed for FISH after one week.
For Western blots, CUGBP1 was detected with the 3B1-3D11 monoclonal antibody (mAb) (SIGMA C5112) and GAPDH was detected with the 6C5 mAb (Millipore MAB374). The enhanced chemiluminescence signal (ECL) was acquired and quantified with the ChemiDoc™ MP imaging system (Bio-Rad). For alternative splicing assays, total RNA was collected with Trizol™ (Invitrogen), and 1 μg was used for reverse transcription with random primers with the RevertAid™ H Minus M-MuL RT (Fermentas) according to manufacturer's instructions. For MBNL2, PCR amplification was performed with primers 5′-[…]-3′ (SEQ ID NO:1) and 5′-[…]-3′ (SEQ ID NO:2). SERCA1 was amplified with primers 5′-[…]-3′ (SEQ ID NO:3) and 5′-[…]-3′ (SEQ ID NO:4). For TNNT2 (cardiac Troponin T), PCR was carried out with primers 5′-[…]-3′ (SEQ ID NO:5) and 5′-[…]-3′ (SEQ ID NO:6). The alternative splicing of the hnRNPA2/B1 transcript was detected with the primers 5′-[…]-3′ (SEQ ID NO:7) and 5′-[…]-3′ (SEQ ID NO:8). PCR was performed with Taq using standard conditions but the number of amplification cycles was optimized to be in the quantitative range for each gene. The products of PCR amplification were resolved on 3.5% agarose gels containing Gelred™ (Biotium) and images were acquired and quantified with the ChemiDoc™ MP imaging system (Bio-Rad). […]
(In general: A western blot detects proteins with antibodies after separation by electrophoresis.)

Data set [3] relates to MBNL2, MBNL1, Sercal and TNNT2 pre-mRNAs. Nature of the data set: Splicing assays on the panel of MBNL2, MBNL1, Sercal and TNNT2 pre-mRNAs in DM1 myoblasts. The note with it: 20 μM, 7 days (FIG. 11). How it is done: Human myoblasts were obtained from the Myosix institute associated with the Association Frangaise contre les Myopathies (AFM). Five primary myoblast lines were obtained as controls, and one line from a DM1 patient with a 3.8 Kb CTG triplet amplification corresponding to approximately 1250 CTG repeats. The human myoblasts are cultivated in HAM-F10 media (SIGMA N6635) with 15% FBS, 1% chick embryo extract, and 390 ng/ml of dexamethasone. One day before adding compounds, 2×10^5 cells were plated in 100 mm plates (for CUGBP1 western blot or RT-PCR alternative splicing assay) or 2×10^4 cells/well are seeded in 12-well plates containing 12 mm round glass coverslips (for FISH to detect RNA foci). […]
For Western blots, CUGBP1 was detected with the 3B1-3D11 monoclonal antibody (mAb) (SIGMA C5112) and GAPDH was detected with the 6C5 mAb (Millipore MAB374). The enhanced chemiluminescence signal (ECL) was acquired and quantified with the ChemiDoc™ MP imaging system (Bio-Rad). […] The alternative splicing of the hnRNPA2/B1 transcript was detected with the primers 5′-[…]-3′ (SEQ ID NO:7) and 5′-[…]-3′ (SEQ ID NO:8). PCR was performed with Taq using standard conditions but the number of amplification cycles was optimized to be in the quantitative range for each gene. […]

Turning to `CCC(C(=O)Nc1ccc(S(=O)(=O)NC23CC4CC(CC(C4)C2)C3)cc1)c1ccccc1` (stereo not shown) [Compound 31], in data set [1] (20 μM), the cellular toxicity result is on record as “exhibits cellular toxicity; also recorded: some toxicity”. `CCCc1c(C(=O)N2CCC(c3ccccc3OC)CC2)cnn1-c1ccccc1` [Compound 43]: in data set [2], the “reduction of CUGBP1 levels” value was determined as 45%. `Cc1c(C(=O)N(Cc2ccccc2)Cc2cccs2)cnn1-c1ccc(Cl)cc1` [Compound 46]: the cellular toxicity entry in data set [1] (20 μM) is “little toxicity”. Turning to `CCCN(CCC)S(=O)(=O)c1ccc(NC(=O)c2cnn(-c3ccccc3)c2C)cc1` [Compound 196, N-(4-(N,N-Dipropylsulfamoyl)phenyl)-5-methyl-1-phenyl-1H-pyrazole-4-carboxamide], the “ratio of viable cells (drug-treated versus DMSO-treated)” value in data set [1] (20 μM, 7 days (FIG. 10, FIG. 14C)) is on record as “above 1”. In addition, in data set [1] (normal (M908) and DM1 myoblasts, 7 days, 5 to 60 μM), the “main phenotype at higher concentrations” value was “cytostatic effect”. For the same compound, the “cytotoxicity in dose-response assay” value in data set [1] (normal (M908) and DM1 myoblasts, 7 days, concentration of 20 μM and below (FIGS. 14A-D)) is reported as “little cytotoxicity”. Moreover, the “correction of mis-splicing of all the pre-mRNAs tested” value in data set [3] is on record as “significantly corrects mis-splicing of all the pre-mRNAs tested”.
